Source: patent US9783523B2, “N-acylimino heterocyclic compounds” (BASF SE, priority 2013, dated 2017)

Assays:
Type in all cases: in vivo
Myzus persicae = experiment: Green peach aphid (Myzus persicae), systemic control, liquid artificial diet under membrane in 96-well microtiter plates; settings: 72 h, read-out: mortality in comparison with untreated controls
Excerpt: General conditions: If not otherwise specified, most test solutions are to be prepared as follows: The active compound is to be dissolved at the desired concentration in a mixture of 1:1 (vol:vol) distilled water:acteon. Further, the test solutions are to be prepared at the day of use (and, if not otherwised specified, in general at concentrations wt/vol).
For evaluating control of green peach aphid (Myzus persicae) through systemic means, the test unit consists of 96-well-microtiter plates containing liquid artificial diet under an artificial membrane.
The compounds are formulated using a solution containing 75% v/v water and 25% v/v DMSO. Different concentrations of formulated compounds are pipetted into the aphid diet, using a custom built pipetter, at two replications.
After application, 5-8 adult aphids are placed on the artificial membrane inside the microtiter plate wells. The aphids are then allowed to suck on the treated aphid diet and incubated at about 23+1° C. and about 50+5% relative humidity for 3 days. Aphid mortality and fecundity is then visually assessed.

Megoura viciae = experiment: Vetch aphid (Megoura viciae), sprayed bean leaf disks in microtiter plates; settings: foliar, 144 h, read-out: mortality in comparison with untreated controls
Experimental: The active compounds were formulated in 3:1 (vol:vol) water:DMSO with different concentrations of formulated compounds.
Bean leaf disks were placed into microtiterplates filled with 0.8% agar-agar and 2.5 ppm OPUS™. The leaf disks were sprayed with 2.5 μl of the test solution and 5 to 8 adult aphids were placed into the microtiter plates which were then closed and kept at 23±1° C. and 50±5% relative humidity under fluorescent light for 6 days. Mortality was assessed on the basis of vital, reproduced aphids. Aphid mortality and fecundity was then visually assessed.

Aphis gossypi = experiment: Cotton aphid (Aphis gossypi), infested cotton plants sprayed; settings: 120 h, read-out: mortality in comparison with untreated controls
Experimental: The active compounds were formulated in cyclohexanone as a 10,000 ppm solution supplied in 1.3 ml ABgene® tubes. These tubes were inserted into an automated electrostatic sprayer equipped with an atomizing nozzle and they served as stock solutions for which lower dilutions were made in 1:1 (vol:vol) water:aceton. A nonionic surfactant (Kinetic®) was included in the solution at a volume of 0.01% (v/v).
Cotton plants at the cotyledon stage were infested with aphids prior to treatment by placing a heavily infested leaf from the main aphid colony on top of each cotyledon. Aphids were allowed to transfer overnight to accomplish an infestation of 80-100 aphids per plant and the host leaf was removed. The infested plants were then sprayed by an automated electrostatic plant sprayer equipped with an atomizing spray nozzle. The plants were dried in the sprayer fume hood, removed from the sprayer, and then maintained in a growth room under fluorescent lighting in a 24-hr photoperiod at 25° C. and 20-40% relative humidity. Aphid mortality on the treated plants, relative to mortality on untreated control plants, was determined after 5 days.

Aphis craccivora = experiment: Cowpea aphid (Aphis craccivora), potted cowpea plants sprayed; settings: 72 h, read-out: mortality in comparison with untreated controls
Experimental: The active compound is dissolved at the desired concentration in a mixture of 1:1 (vol:vol) distilled water:acetone. Surfactant (Alkamuls® EL 620) is added at a rate of 0.1% (vol/vol). The test solution is prepared at the day of use.
Potted cowpea plants are colonized with approximately 50-100 aphids of various stages by manually transferring a leaf tissue cut from infested plant 24 hours before application. Plants are sprayed after the pest population has been recorded. Treated plants are maintained on light carts at about 28° C. Percent mortality is assessed after 72 hours.

Dichromothrips corbetti = experiment: Orchid thrips (Dichromothrips corbetti), floral-immersion technique; settings: 72 h, read-out: mortality in comparison with untreated controls
Experimental: Dichromothrips corbetti adults used for bioassay are obtained from a colony maintained continuously under laboratory conditions. For testing purposes, the test compound is diluted in a 1:1 mixture of acetone:water (vol:vol), plus 0.01% vol/vol Alkamuls® EL 620 surfactant.
Thrips potency of each compound is evaluated by using a floral-immersion technique. Plastic petri dishes are used as test arenas. All petals of individual, intact orchid flowers are dipped into treatment solution and allowed to dry. Treated flowers are placed into individual petri dishes along with about 20 adult thrips. The petri dishes are then covered with lids. All test arenas are held under continuous light and a temperature of about 28° C. for duration of the assay. After 3 days, the numbers of live thrips are counted on each flower, and along inner walls of each petri dish. The percent mortality is recorded 72 hours after treatment.

Nephotettix virescens = experiment: Rice green leafhopper (Nephotettix virescens), sprayed rice seedlings; settings: 72 h, read-out: mortality in comparison with untreated controls
Experimental: Rice seedlings are cleaned and washed 24 hours before spraying. The active compounds are formulated in 50:50 acetone:water (vol:vol), and 0.1% vol/vol surfactant (EL 620) is added. Potted rice seedlings are sprayed with 5 ml test solution, air dried, placed in cages and inoculated with 10 adults. Treated rice plants are kept at about 28-29° C. and relative humidity of about 50-60%. Percent mortality is recorded after 72 hours.

Nilaparvata lugens = experiment: Rice brown plant hopper (Nilaparvata lugens), sprayed rice seedlings; settings: 72 h, read-out: mortality in comparison with untreated controls
Experimental: Rice seedlings are cleaned and washed 24 hours before spraying. The active compounds is formulated in 50:50 acetone:water (vol:vol) and 0.1% vol/vol surfactant (EL 620) was added. Potted rice seedlings are sprayed with 5 ml test solution, air dried, placed in cages and inoculated with 10 adults. Treated rice plants are kept at about 28-29° C. and relative humidity of about 50-60%. Percent mortality is recorded after 72 hours.

Anthonomus grandis = experiment: Boll weevil (Anthonomus grandis), eggs on insect diet in 24-well microtiter plates; settings: 120 h, read-out: mortality in comparison with untreated controls
Experimental: The compounds were formulated in 3:1 (vol:vol) water:DMSO.
For evaluating control of boll weevil (Anthonomus grandis) the test unit consisted of 24-well-microtiter plates containing an insect diet and 20-30 A. grandis eggs. Different concentrations of formulated compounds were sprayed onto the insect diet at 20 μl, using a custom built micro atomizer, at two replications. After application, the microtiter plates were incubated at 23±1° C. and 50±5% relative humidity for 5 days. Egg and larval mortality was then visually assessed.

Ceratitis capitata = experiment: Mediterranean fruitfly (Ceratitis capitata), eggs on insect diet in microtiter plates; settings: 120 h, read-out: mortality in comparison with untreated controls
Experimental: For evaluating control of Mediterranean fruitfly (Ceratitis capitata) the test unit consisted of microtiter plates containing an insect diet and 50-80 C. capitata eggs.
The compounds were formulated using a solution containing 75% v/v water and 25% v/v DMSO. Different concentrations of formulated compounds were sprayed onto the insect diet at 5 μl, using a custom built micro atomizer, at two replications.
After application, microtiter plates were incubated at about 28±1° C. and about 80±5% relative humidity for 5 days. Egg and larval mortality was then visually assessed.

Bemisia argentifolii = experiment: Silverleaf whitefly (Bemisia argentifolii) adults, sprayed cotton plants; settings: 72 h, read-out: mortality in comparison with untreated controls
Experimental: The active compounds were formulated in cyclohexanone as a 10,000 ppm solution supplied in 1.3 ml ABgene® tubes. These tubes were inserted into an automated electrostatic sprayer equipped with an atomizing nozzle and they served as stock solutions for which lower dilutions were made in 1:1 (vol:vol) water: aceton. A nonionic surfactant (Kinetic®) was included in the solution at a volume of 0.01% (v/v).
Cotton plants at the cotyledon stage (one plant per pot) were sprayed by an automated electrostatic plant sprayer equipped with an atomizing spray nozzle. The plants were dried in the sprayer fume hood and then removed from the sprayer. Each pot was placed into a plastic cup and 10 to 12 whitefly adults (approximately 3-5 days old) were introduced. The insects were collected using an aspirator and 0.6 cm, nontoxic Tygon® tubing (R-3603) connected to a barrier pipette tip. The tip, containing the collected insects, was then gently inserted into the soil containing the treated plant, allowing insects to crawl out of the tip to reach the foliage for feeding. Cups were covered with a reusable screened lid (150-micron mesh polyester screen PeCap from Tetko, Inc.). […] Mortality was assessed 3 days after treatment, compared to untreated control plants.

Heliothis virescens = experiment: Tobacco budworm (Heliothis virescens), eggs on insect diet in 96-well microtiter plates; settings: 120 h, read-out: mortality in comparison with untreated controls
Experimental: For evaluating control of tobacco budworm (Heliothis virescens) the test unit consisted of 96-well-microtiter plates containing an insect diet and 15-25 H. virescens eggs.
The compounds were formulated using a solution containing 75% v/v water and 25% v/v DMSO. Different concentrations of formulated compounds were sprayed onto the insect diet at 10 μl, using a custom built micro atomizer, at two replications.
After application, microtiter plates were incubated at about 28+1° C. and about 80+5% relative humidity for 5 days. Egg and larval mortality was then visually assessed.

Plutella xylostella = experiment: Diamond back moth (Plutella xylostella), dipped cabbage leaves; settings: 72 h, read-out: mortality in comparison with untreated controls
Experimental: The active compound is dissolved at the desired concentration in a mixture of 1:1 (vol:vol) distilled water:aceteone. Surfactant (Alkamuls® EL 620) is added at a rate of 0.1% (vol/vol). The test solution is prepared at the day of use.
Leaves of cabbage were dipped in test solution and air-dried. Treated leaves were placed in petri dish eslined with moist filter paper and inoculated with ten 3rd instar larvae. Mortality was recorded 72 hours after treatment. Feeding damages were also recorded using a scale of 0-100%.

Spodoptera eridania = experiment: Southern armyworm (Spodoptera eridania), sprayed lima bean plants; settings: 96 h, read-out: mortality in comparison with untreated controls
Experimental: The active compounds were formulated in cyclohexanone as a 10,000 ppm solution supplied in tubes. The tubes were inserted into an automated electrostatic sprayer equipped with an atomizing nozzle and they served as stock solutions for which lower dilutions were made in 50% acetone:50% water (v/v). A nonionic surfactant (Kinetic®) was included in the solution at a volume of 0.01% (v/v).
Lima bean plants (variety Sieva) were grown 2 plants to a pot and selected for treatment at the 1st true leaf stage. Test solutions were sprayed onto the foliage by an automated electrostatic plant sprayer equipped with an atomizing spray nozzle. The plants were dried in the sprayer fume hood and then removed from the sprayer. Each pot was placed into perforated plastic bags with a zip closure. About 10 to 11 armyworm larvae were placed into the bag and the bags zipped closed. Test plants were maintained in a growth room at about 25° C. and about 20-40% relative humidity for 4 days, avoiding direct exposure to fluorescent light (24 hour photoperiod) to prevent trapping of heat inside the bags. Mortality and reduced feeding were assessed 4 days after treatment, compared to untreated control plants.

Nezara viridula = experiment: Green soldier stink bug (Nezara viridula), sprayed soybean pods in Petri dishes; settings: 120 h, read-out: mortality in comparison with untreated controls
Experimental: The active compound is dissolved at the desired concentration in a mixture of 1:1 (vol:vol) distilled water:aceteone. Surfactant (Kinetic HV) is added at a rate of 0.01% (vol/vol). The test solution is prepared at the day of use.
Soybean pods were placed in 90×50 mm glass Petri dishes lined with moist filter paper and inoculated with ten late 3rd instar N. viridula. Using a hand atomizer, an approximately 2 ml solution is sprayed into each Petri dish. Treated cups were kept at about 25-26° C. and relative humidity of about 65-70%. Percent mortality was recorded after 5 days.

CO/N=C/C(=O)/N=c1\ccccn1Cc1ccc(Cl)nc1 [Compound I-15]
≥ 75%: mortality at 2500 ppm (Myzus persicae) | mortality at 2500 ppm (Megoura viciae) | mortality at 300 ppm (Aphis gossypi) | mortality at 500 ppm (Aphis craccivora) | mortality at 500 ppm (Dichromothrips corbetti) | mortality at 300 ppm (Nephotettix virescens) | mortality at 500 ppm (Nilaparvata lugens) | mortality at 2500 ppm (Anthonomus grandis) | mortality at 2500 ppm (Ceratitis capitata) | mortality at 300 ppm (Bemisia argentifolii) | mortality at 2500 ppm (Heliothis virescens) | mortality at 500 ppm (Plutella xylostella) | mortality at 300 ppm (Spodoptera eridania) | mortality at 500 ppm (Nezara viridula)
